According to patent publication US20100048523A1, “Compounds, Compositions and Methods for Treating Hormone-Dependent Maladies” (priority 2006, published 2010):

Experiments:
[1] = test system: MCF-10A cells stably overexpressing ERα; assay: Growth assay (crystal violet) of ERα positive MCF-10A cells; assay type: cell-based, human; details: for effect on estrogen-induced proliferation: ERα positive MCF-10A (p21+/+), with estrogen
Description: (§1) ERα positive MCF-10A (ERIN#9), pIRESpuro2 transfection control (−) control, and ERα positive MCF-10A p21−/− (1.6#4) cell lines were seeded in assay media (no EGF) and exposed to estrogen (E2), vehicle only, estrogen and Tamoxifen (E2+Tam), estrogen and Faslodex (E2+ICI), Tamoxifen alone (Tam) and Faslodex alone (ICI). Cells were grown for 1 week and stained with crystal violet. Results are representative of multiple clones including heterozygous controls, and assays were repeated three times for each clone.
(§2) The creation of a non-tumorigenic human breast epithelial cell line (MCF-10A) in which the p21 gene was deleted through targeted homologous recombination has been previously described. Because p21 has been implicated in Tamoxifen resistance, and the response of Tamoxifen in both parental MCF-10A cells and their p21−/− derivatives was assessed. MCF-10A cells are ERα negative and unresponsive to estrogen stimulation. In order to develop a model system to analyze the effects of estrogen and anti-estrogen signaling, MCF-10A cells and their p21−/− derivatives were stably transfected with a cDNA encoding for wild type ERα.
(§3) Unlike previous attempts to stably integrate ERα into the MCF-10A cell line, a cloning vector containing an internal ribosome entry site (IRES) was used to ensure high levels of wild type ERα expression. The full coding sequence of wild type ERα was PCR cloned into pIRESpuro2 (Clontech) and the absence of any coding mutations was verified by direct sequencing.
(§4) Cell lines were generated and grown with charcoal stripped dextran treated serum (Hyclone) and phenol red free medium to avoid any possible growth effects of estrogen in the medium.

[2] = test system: MCF-10A p21 knock out cell lines (ERα positive); assay: Growth assay (crystal violet) of ERα positive MCF-10A p21−/− cells; assay type: cell-based, human; details: for growth (cell proliferation) in response to the substance: ERα positive MCF-10A p21−/− (p21 null)
Description: as §1, §2, §3, §4

[3] = test system: metastatic breast cancer (skin); assay: Case report: metastatic breast cancer (skin) nodule under Tamoxifen; assay type: in vivo, human
[4] = test system: ER/PR positive breast cancers; details: adjuvant setting; cited from earlier work
[5] = test system: p21−/− MCF-10A breast cancer cell lines; assay: High-throughput cell-based growth inhibition screen, p21 knock-out (Erik) vs parental (Erin) cell lines; set-up: species or system human

Compound	effect on estrogen-induced proliferation [1]	growth (cell proliferation) in response to the substance [2]	targeting of tamoxifen resistant ER positive cells [5]	other results
estrogen	–	–	–	proliferation in response to the substance ([1]; ERα positive MCF-10A, assay media without EGF, 1 week): proliferated in response to estrogen
C[C@]12CC[C@@H]3c4ccc(O)cc4C[C@@H](CCCCCCCCC[S+]([O-])CCCC(F)(F)C(F)(F)F)[C@H]3[C@@H]1CC[C@@H]2O (stereo partly shown) [Faslodex, fulvestrant]	inhibited	–	–	effect on proliferative effects of estrogen ([2]; p21−/− cell lines, with estrogen): could still inhibit
CC/C(=C(\c1ccccc1)c1ccc(OCCN(C)C)cc1)c1ccccc1 [Tamoxifen]	inhibited	grew in response	–	growth inhibitory effect on p21 knock out cells ([2]; ERα positive MCF-10A p21−/−): resistant to the growth inhibitory effects; behaviour of recurrent skin nodule during Tamoxifen ([3]; 2003, in the presence of Tamoxifen): growing in the presence of Tamoxifen; behaviour of skin nodule after Tamoxifen cessation ([3]; one month after Tamoxifen cessation): went away after cessation; reduction of the risk of recurrence [4]: ≤ 47%
O=C(c1ccc(OCCN2CCCCC2)cc1)c1c(-c2ccc(O)cc2)sc2cc(O)ccc12 [Raloxifene]	behaved identically to Tamoxifen	not as pronounced as Tamoxifen's	–	–
CC(=O)Oc1ccc2c(c1)CCC1C2CC[C@@]2(C)C1CCC21OCCO1 (stereo partly shown) [Compound 233-E09]	–	–	target tamoxifen resistant ER positive cells	–
CC12CCC3c4ccc(O)cc4CCC3C1CCC21OCCO1 (stereo not shown) [Compound 233-D4]	–	–	target tamoxifen resistant ER positive cells	–
